Assay results taken from PubChem BioAssay (NCI).
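1) Cells in 96-well plates. 2) Compound, 48 h, 5 concentrations. 3) Linear interpolation between surrounding doses. 4) Unreached endpoint = highest concentration. The concentration for 50% growth inhibition is given as GI50. TGI is the concentration that stops growth completely.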

What was measured:
Assay in all cases: DTP human tumour cell line panel, 48 h
HOP-92 NSCLC = tested on: HOP-92 NSCLC
LXFL 529 NSCLC = tested on: LXFL 529 NSCLC
RXF 393 renal = tested on: RXF 393 renal
HCT-15 colon = tested on: HCT-15 colon
SNB-78 CNS = tested on: SNB-78 CNS
SR leukemia = tested on: SR leukemia
SK-OV-3 ovarian = tested on: SK-OV-3 ovarian
MALME-3M melanoma = tested on: MALME-3M melanoma
MCF7 breast = tested on: MCF7 breast
MDA-MB-231 breast = tested on: MDA-MB-231 breast
MDA-MB-435 = tested on: MDA-MB-435
MDA-N = tested on: MDA-N

## Cc1cc(C)n(-c2nsc3ccccc23)n1
HOP-92 NSCLC
  TGI: > 100 µM
LXFL 529 NSCLC
  TGI: > 100 µM
RXF 393 renal
  TGI: > 100 µM
HCT-15 colon
  TGI: > 100 µM
SNB-78 CNS
  TGI: > 100 µM
SR leukemia
  TGI: > 100 µM

## CSc1nc(NC2OCC(O)C(O)C2O)c(N)c(=O)[nH]1 (centres undefined)
HOP-92 NSCLC
  TGI: > 100 µM
RXF 393 renal
  TGI: > 100 µM
HCT-15 colon
  TGI: > 100 µM
SNB-78 CNS
  TGI: > 100 µM
SK-OV-3 ovarian
  TGI: > 100 µM
MALME-3M melanoma
  TGI: > 100 µM
MCF7 breast
  TGI: > 100 µM

## Brc1ccc(C2CC(c3cccc4ccccc34)=Nc3ccccc3S2)cc1 (centres undefined)
HOP-92 NSCLC
  TGI: > 100 µM
LXFL 529 NSCLC
  TGI: > 100 µM
RXF 393 renal
  TGI: > 100 µM
HCT-15 colon
  TGI: > 100 µM
SNB-78 CNS
  TGI: > 100 µM
SR leukemia
  TGI: > 100 µM
SK-OV-3 ovarian
  TGI: > 100 µM

## C/C(N=NS(=O)(=O)c1ccccc1)=C1\C=CC=CN1O
HOP-92 NSCLC
  TGI: > 100 µM
LXFL 529 NSCLC
  TGI: > 100 µM
HCT-15 colon
  TGI: > 100 µM
SNB-78 CNS
  TGI: > 100 µM
SR leukemia
  TGI: > 100 µM
SK-OV-3 ovarian
  TGI: > 100 µM

## CC(C)(C)[Si](C)(C)OCC1OC(n2cnc3c(N)ncnc32)CC1O (centres undefined)
RXF 393 renal
  TGI: > 100 µM
MDA-MB-231 breast
  TGI: > 100 µM
HCT-15 colon
  TGI: > 100 µM
MDA-MB-435
  TGI: > 100 µM
SR leukemia
  TGI: > 100 µM
SK-OV-3 ovarian
  TGI: > 100 µM
MALME-3M melanoma
  TGI: > 100 µM
MDA-N
  TGI: > 100 µM
MCF7 breast
  TGI: > 100 µM

## CC1CCC2(O)C3(C)CC4(O)OC2(C1O)C1(O)C3(O)C(OC(=O)c2ccc[nH]2)C(O)(C(C)C)C41C (centres undefined)
HOP-92 NSCLC
  TGI: > 100 µM
RXF 393 renal
  TGI: > 100 µM
MDA-MB-231 breast
  TGI: > 100 µM
HCT-15 colon
  TGI: > 100 µM
MDA-MB-435
  TGI: > 100 µM
SK-OV-3 ovarian
  TGI: > 100 µM
MALME-3M melanoma
  TGI: > 100 µM
MDA-N
  TGI: > 100 µM
MCF7 breast
  TGI: > 100 µM

## c1coc(CNc2ncnc3[nH]ncc23)c1
HOP-92 NSCLC
  TGI: > 100 µM
LXFL 529 NSCLC
  TGI: > 100 µM
RXF 393 renal
  TGI: > 100 µM
HCT-15 colon
  TGI: > 100 µM
SNB-78 CNS
  TGI: > 100 µM
SR leukemia
  TGI: > 100 µM
SK-OV-3 ovarian
  TGI: > 100 µM
MALME-3M melanoma
  TGI: > 100 µM

## CC(=O)c1ccc2c(c1)c1c(C)c3c[n+](C)ccc3c(C)c1n2C
HOP-92 NSCLC
  TGI: 69.2 µM
RXF 393 renal
  TGI: 42.8 µM
HCT-15 colon
  TGI: > 100 µM
SNB-78 CNS
  TGI: 35.3 µM
SK-OV-3 ovarian
  TGI: > 87 µM
MALME-3M melanoma
  TGI: 33.7 µM
MCF7 breast
  TGI: > 29 µM

## NCCCOc1ccc([N+](=O)[O-])cc1Cl
HOP-92 NSCLC
  TGI: > 100 µM
LXFL 529 NSCLC
  TGI: > 100 µM
HCT-15 colon
  TGI: > 100 µM
SR leukemia
  TGI: > 100 µM
MALME-3M melanoma
  TGI: > 100 µM

## Fc1ccc(C2CC(c3cccc(Nc4ccncc4)c3)=NN2c2ccc(Cl)cc2)cc1 (centres undefined)
RXF 393 renal
  GI50: 1.63 µM
  TGI: 3 µM
MDA-MB-231 breast
  GI50: 1.51 µM
  TGI: 2.86 µM
HCT-15 colon
  GI50: 1.91 µM
  TGI: 3.82 µM
MDA-MB-435
  GI50: 1.58 µM
  TGI: 2.95 µM
SR leukemia
  GI50: 1.79 µM
  TGI: 4.23 µM
SK-OV-3 ovarian
  GI50: 1.98 µM
  TGI: 4.53 µM
MALME-3M melanoma
  GI50: 1.59 µM
  TGI: 3.1 µM
MCF7 breast
  GI50: 1.75 µM
  TGI: 3.5 µM

## Cc1cc2c(cc1C)OC(=O)CC2
HOP-92 NSCLC
  TGI: > 100 µM
RXF 393 renal
  TGI: > 100 µM
MDA-MB-231 breast
  TGI: > 100 µM
MDA-MB-435
  TGI: > 100 µM
SR leukemia
  TGI: > 100 µM
MALME-3M melanoma
  TGI: > 100 µM
MDA-N
  TGI: > 100 µM
MCF7 breast
  TGI: > 100 µM

## OCCOCCN1CCN(CCCN2c3ccccc3Sc3ccc(C(F)(F)F)cc32)CC1
HOP-92 NSCLC
  TGI: 27.8 µM
RXF 393 renal
  TGI: 9.85 µM
MDA-MB-231 breast
  TGI: 24 µM
HCT-15 colon
  TGI: 38.3 µM
MDA-MB-435
  TGI: 23.8 µM
SK-OV-3 ovarian
  TGI: 33.7 µM
MDA-N
  TGI: 26.1 µM
MCF7 breast
  TGI: 28.3 µM

## N#CN=[N+]([O-])c1ccc(C(=O)O)cc1
HOP-92 NSCLC
  TGI: 40.4 µM
RXF 393 renal
  TGI: 30.1 µM
HCT-15 colon
  TGI: 34.1 µM
MDA-MB-435
  TGI: 31.8 µM
SK-OV-3 ovarian
  TGI: 33 µM
MCF7 breast
  TGI: 38.8 µM

## CC(=O)OCC1=C(C(=O)O)N2C(=O)C(NC(=O)CSc3ccncc3)C2SC1 (centres undefined)
HOP-92 NSCLC
  TGI: > 100 µM
RXF 393 renal
  TGI: > 100 µM
MDA-MB-231 breast
  TGI: > 100 µM
HCT-15 colon
  TGI: > 100 µM
MDA-MB-435
  TGI: > 100 µM
SR leukemia
  TGI: > 100 µM
SK-OV-3 ovarian
  TGI: > 100 µM
MALME-3M melanoma
  TGI: > 100 µM
MDA-N
  TGI: > 100 µM
MCF7 breast
  TGI: > 100 µM

## CCN(CC)CCNc1ccc2nnn3c4ccc(C)cc4c(=O)c1c23
HOP-92 NSCLC
  TGI: 20.7 µM
LXFL 529 NSCLC
  TGI: 24.5 µM
HCT-15 colon
  TGI: 22.4 µM
SNB-78 CNS
  TGI: 26.1 µM
SR leukemia
  TGI: 13.1 µM
SK-OV-3 ovarian
  TGI: 25.8 µM
MALME-3M melanoma
  TGI: 25.7 µM

## O=C1Nc2ccccc2C1=Nc1cccc2ncccc12
HOP-92 NSCLC
  TGI: > 100 µM
RXF 393 renal
  TGI: > 100 µM
MDA-MB-231 breast
  TGI: > 100 µM
HCT-15 colon
  TGI: > 100 µM
MDA-MB-435
  TGI: 42.3 µM
SR leukemia
  TGI: > 100 µM
SK-OV-3 ovarian
  TGI: 99.7 µM
MALME-3M melanoma
  TGI: > 100 µM
MDA-N
  TGI: > 100 µM
MCF7 breast
  TGI: > 100 µM
